Reference: US20110028518A1, “DEXLANSOPRAZOLE PROCESS AND POLYMORPHS” (DR. REDDY'S LABORATORIES LTD., priority 2008, published 2011)

Test: Storage stability studies (Example 27): appearance, PXRD, HPLC purity, impurities and chiral purity
Assay type: physicochemical
Details: for Chiral Purity / Highest Impurity / Purity / Sulfide / Sulfone: HPLC
Description: A high performance liquid chromatography (HPLC) method for measuring the chemical purity of dexlansoprazole or a compound of formula (VII) of the present application, and for determination of their corresponding impurities, involves the use of a YMC-PAK ODS-A 100×4.6, 3 μm or equivalent column.
A high performance liquid chromatography method useful for measuring the enantiomeric purity of dexlansoprazole or a compound of formula (VII) of the present application involves the use of a Chiralpak-IC, 250×4.6 mm or equivalent column.
Products from certain of the above examples and a crystalline dexlansoprazole, prepared according to Example 2 of U.S. Pat. No. 6,462,058, were tested for their storage stabilities. The samples were stored in tied clear polyethylene bags that were placed in sealed black polyethylene bags along with a silica gel desiccant pouch filled with nitrogen, and finally the black bags were placed into triple laminated foil bags along with a silica gel pouch and then sealed and stored in HDPE drum packages under the conditions noted in the following results tables. Samples were analyzed before storage, at intervals during storage, and after storage.
Samples were analyzed by HPLC for chemical purity, for:
a “sulfide” impurity, having a chemical name 2-[[{4-(2,2,2-trifluoroethoxy)-3-methylpyridine-2-yl}methyl]thio]-1H-benzimidazole and the following structure;
a “sulfone” impurity, having a chemical name 2-[[{4-(2,2,2-trifluoroethoxy)-3-methylpyridine-2-yl}methyl]sulfonyl]-1H-benzimidazole and the following structure;
and for chiral purity. Also given in the tables is the concentration of the highest unidentified impurity, as determined by HPLC, and the PXRD analysis result. All percentages given below are expressed on a weight basis.

[1] = Initial Analysis, before storage

## Cc1c(OCC(F)(F)F)ccnc1C[S@@+]([O-])c1nc2ccccc2[nH]1 [Crystalline Drug, dexlansoprazole]
After 1 Week at 2-8° C.
  Appearance: Cream color
  PXRD: Crystalline
  Chiral Purity: 88.02%
  Highest Impurity: 0.14%
  Purity: 95.39%
  Sulfide: 2.48%
  Sulfone: 1.68%
After 1 Week at 25-35° C.
  Appearance: Cream color
  PXRD: Crystalline
  Chiral Purity: 87.8%
  Highest Impurity: 0.14%
  Purity: 95.28%
  Sulfide: 2.48%
  Sulfone: 1.77%
After 2 Weeks at 2-8° C.
  Appearance: Cream color
  PXRD: Crystalline
  Chiral Purity: 88.49%
  Highest Impurity: 0.13%
  Purity: 95.19%
  Sulfide: 2.36%
  Sulfone: 1.62%
After 2 Weeks at 25-35° C.
  Appearance: Cream color
  PXRD: Crystalline
  Chiral Purity: 88.34%
  Highest Impurity: 0.13%
  Purity: 95.19%
  Sulfide: 2.36%
  Sulfone: 1.62%
After 3 Weeks at 2-8° C.
  Appearance: Cream color
  PXRD: Crystalline
  Chiral Purity: 88.34%
  Highest Impurity: 0.14%
  Purity: 95.65%
  Sulfide: 2.31%
  Sulfone: 1.61%
After 3 Weeks at 25-35° C.
  Appearance: Cream color
  PXRD: Crystalline
  Chiral Purity: 88.27%
  Highest Impurity: 0.13%
  Purity: 95.4%
  Sulfide: 2.39%
  Sulfone: 1.65%
[1]
  Appearance: Cream color
  PXRD: Crystalline
  Chiral Purity: 88.13%
  Highest Impurity: 0.15%
  Purity: 95.4%
  Sulfide: 2.41%
  Sulfone: 1.66%

## Cc1c(OCC(F)(F)F)ccnc1C[S@@+]([O-])c1nc2ccccc2[nH]1 [Example 8, dexlansoprazole]
After 1 Week at 2-8° C.
  Appearance: Light yellow
  PXRD: Amorphous
  Chiral Purity: 99.89%
  Highest Impurity: 0.13%
  Purity: 97.21%
  Sulfide: 1.83%
  Sulfone: 0.63%
After 1 Week at 25-35° C.
  Appearance: Light yellow
  PXRD: Amorphous
  Chiral Purity: 99.86%
  Highest Impurity: 0.14%
  Purity: 97.12%
  Sulfide: 1.84%
  Sulfone: 0.68%
After 2 Weeks at 2-8° C.
  Appearance: Light yellow
  PXRD: Amorphous
  Chiral Purity: 99.87%
  Highest Impurity: 0.11%
  Purity: 97.21%
  Sulfide: 1.79%
  Sulfone: 0.63%
After 2 Weeks at 25-35° C.
  Appearance: Light yellow
  PXRD: Amorphous
  Chiral Purity: 99.86%
  Highest Impurity: 0.11%
  Purity: 97.23%
  Sulfide: 0.63%
  Sulfone: 1.78%
After 3 Weeks at 2-8° C.
  Appearance: Light yellow
  PXRD: Amorphous
  Chiral Purity: 99.85%
  Highest Impurity: 0.12%
  Purity: 97.27%
  Sulfide: 1.77%
  Sulfone: 0.62%
After 3 Weeks at 25-35° C.
  Appearance: Light yellow
  PXRD: Amorphous
  Chiral Purity: 99.84%
  Highest Impurity: 0.15%
  Purity: 97%
  Sulfide: 1.79%
  Sulfone: 0.63%
[1]
  Appearance: Light yellow
  PXRD: Amorphous
  Chiral Purity: 99.86%
  Highest Impurity: 0.24%
  Purity: 97.14%
  Sulfide: 1.77%
  Sulfone: 0.61%
